The numbers were not newly measured in patent US4057684A, “Alkyl amino-glucopyranoside derivative and process for producing the same” (priority 1975, dated 1977), which cites them from elsewhere.

The conditions of data set [1]: cited from earlier work.
For the next data set, the system named is tumor. Particulars: in vivo; cited from earlier work.
For data set [2] the following is noted: test animals; cited from earlier work.
The conditions of data set [3]: in vivo; cited from earlier work.

Turning to `O=NN(CCCl)C(=O)N[C@H]1C(O)O[C@H](CO)[C@@H](O)[C@@H]1O` (stereo partly drawn) [2-[3-(2-chloroethyl)-3-nitrosoureido]-2-deoxy-D-glucopyranose], in data set [1], the water solubility result is listed as “water-soluble”. Besides, the antitumor activity entry in the data set on tumor is “improved antitumor activity”. Moreover, the diabetogenic activity result in data set [2] was “diabetogenic”. The bone marrow toxicity entry in data set [3] is on record as “low bone marrow toxicity”.
